Data taken from US20260306500A1, “METHOD OF INHIBITING ADENOSINE TRIPHOSPHATE SECRETION, METHOD OF INHIBITING HEPATIC STELLATE CELL ACTIVATION, METHOD OF DEACTIVATING HEPATIC STELLATE CELL, METHOD OF TREATING HEPATIC FIBROSIS, METHOD OF TREATING NON-ALCOHOLIC STEATOHEPATITIS, AND METHOD OF TREATING PSORIASIS” (Kurume University, priority 2023, published 2026).

Experiments:
[1] = PEP; cited from earlier work
[2] = PEP; cited from earlier work; remark: listed apart in the source
[3] = test system: isolated chromaffin granules; settings: role: inhibitor; 1 to 10 mM PEP; cited from earlier work
[4] = test system: MCD diet-induced NASH model; settings: administration of clodronate, Non Patent Literature 4; cited from earlier work
mouse liver = experiment: Thioacetamide-induced hepatic fibrosis in mice: histology, immunostaining and fibrosis score; assay type: in vivo; settings: 200 mg/kg p.o. three times per week
Method: Wild-type mice, […] (manufactured by Charles River Japan), were housed on a 12-hour light/dark cycle and fed a standard solid diet (5.4% fat, CRF-1, manufactured by Oriental Yeast Co., Ltd.) ad libitum. Thioacetamide (TAA, manufactured by FUJIFILM Wako Pure Chemical Corporation) was dissolved in physiological saline at 0.9% w/v. Eight-week-old mice were randomly assigned to three groups and continuously treated for 9 weeks according to the following scheme. At Week 9, all mice were euthanized 1 hour after administration of physiological saline or IMG.
Normal control group (N=6): Physiological saline was intraperitoneally administered to mice three times per week. Eight hours after each administration, a vehicle was orally administered to the mice.
TAA group (N=6): TAA (50 mg/kg, intraperitoneal) was administered to mice. Eight hours thereafter, physiological saline was orally administered to the mice. This treatment was performed three times per week for a total of 9 weeks.
TAA+IMG group (N=6): During the first week, physiological saline was orally administered to mice. Thereafter, imeglimin (IMG) at 200 mg/kg was orally administered three times per week for 8 weeks. The administration of IMG was performed 8 hours after intraperitoneal administration of TAA (50 mg/kg).
For immunohistochemical analysis, liver samples were fixed in 4% paraformaldehyde, embedded in paraffin, and then sectioned. The sections were stained with HE or PSR. In addition, the paraffin-embedded sections were subjected to immunostaining using an α-SMA monoclonal antibody (1:500, catalog No. A5228, manufactured by Sigma-Aldrich) and an F4/80 monoclonal antibody (1:200, catalog No. MCA497GA, manufactured by AbD Serotec). The cell specimens were observed using a microscope (BZ-X700 series, manufactured by Keyence) or a confocal laser microscope (FV1000, manufactured by Olympus Corporation). The number of F4/80-positive cells was counted in four high-power fields per section. The α-SMA-positive area and the PSR-positive area were quantified using the image analysis software Fiji-ImageJ (1.54f).
A histological score was determined by a blinded investigator using the NAFLD histological scoring system of the Nonalcoholic Steatohepatitis Clinical Research Network. The total NAFLD activity score (NAS) was calculated from the total of the individual scores for steatosis ([…]), lobular inflammation (F4/80), and hepatocyte ballooning. The range of each parameter was 0 to 2 (ballooning) or 3 (the other two scores), where 0 indicates normal and 2 or 3 indicates severe. Staging of fibrosis was based on the NASH fibrosis stages, and a fibrosis stage ranging from 0 to 4 was determined according to Reference H (David E. Kleiner et al., 2005, Design and validation of a histological scoring system for nonalcoholic fatty liver disease, Hepatology, 41, 1313-1321).
All results are expressed as the mean±standard error of the mean (S.E.M.). Statistical analyses were performed using GraphPad Prism 7.0 (GraphPad Software). Significance upon comparison between two groups was evaluated by an unpaired two-tailed Student's t-test. […]. Statistical significance among three or more groups was determined by two-way analysis of variance (ANOVA) with Tukey's or Dunnett's post hoc test. Coloc2 was used to perform image analysis, automatic thresholding, and pixel intensity correlation for statistical processing. Statistical significance was assumed when the P value was <0.05.

keratinocytes = experiment: Imiquimod-induced ATP secretion in keratinocytes; assay type: cell-based, human; settings: 18 hours, N=8 (FIG. 32)
Method: In the same manner as in Example 1, keratinocytes were cultured at 2.5×10^4 cells/well in a 24-well plate at 37° C. in 5% CO2 for 4 days. The medium was replaced with HBSS (manufactured by Gibco) supplemented with 1 μM or 10 μM imeglimin, and incubation was performed at 37° C. in 5% CO2 for 18 hours. Thereafter, imiquimod was added thereto at 1 μg/ml or 0.5 μg/ml, and incubation was performed for 15 minutes, followed by collection of 200 μl of the supernatant. The supernatant was immediately treated on a heat block at 95° C. for 10 minutes, and ATP in the supernatant was quantified using a ATP Assay Kit—Luminescence (manufactured by Dojindo) (N=8).

mouse auricle = experiment: Imiquimod-induced psoriasis model, comparison with an anti-TNFα antibody (Example 19); assay type: in vivo
Method: The dorsal hair of mice was shaved and depilated (Day 0). To each of the left auricle and the depilated back of each mouse, 62.5 mg of 5% imiquimod cream (Beselna Cream 5%) was applied once daily a total of seven times (Days 1 to 7) in accordance with Example 18, to induce imiquimod-induced psoriasis (IMQ group). In the IMQ+IMG group, mice received oral administration of imeglimin (40 mg/kg) once daily (Day 1 to 7) after the imiquimod application. […] Thickness of the auricle was measured, and the degrees of erythema, desquamation, and infiltration in the affected area were rated on Days 1, 3, 5, 7, and 8 according to the PASI scoring of the DermNET Dermatology Resource (none: 0, mild: 1, moderate: 2, severe: 3, and very severe: 4). The resulting values were used to calculate the PASI score.
Further, for an auricle excised on Day 8, immunohistochemical staining was performed in the same manner as in Example 18, and auricular sections were imaged using a fluorescence microscope (BZ-X710; manufactured by Keyence Corporation).

SMILES: C=C(OP(=O)(O)O)C(=O)O [PEP, phosphoenolpyruvic acid]
- permeation of the cell membrane [1]: freely permeate the cell membrane
- energy of phosphate bond in vivo [2]: -14.8 kcal/mol
- uptake of ATP into isolated chromaffin granules [3]: inhibited

SMILES: O=P(O)(O)C(Cl)(Cl)P(=O)(O)O [clodronate]
- NASH activity score, inflammatory cell infiltration, and hepatic fibrosis [4]: improves

SMILES: C[C@@H]1N=C(N)NC(N(C)C)=N1 [imeglimin]
- destruction of the lobular structure, hepatocyte ballooning, and inflammatory cell infiltration (mouse liver; 8 weeks): reduced
- fibrosis stage (mouse liver; 8 weeks): reducing the fibrosis stage
- TAA-induced increase in F4/80-positive macrophages (mouse liver; 8 weeks (FIG. 27)): strongly suppressed
- TAA-induced increase in α-SMA-positive reaction (mouse liver; 8 weeks (FIG. 27)): strongly suppressed
- TAA-induced increase in fibrosis score (mouse liver; 8 weeks (FIG. 28)): suppressed
- PSR staining-positive area (mouse liver; 8 weeks, TAA+IMG vs TAA group, N=6): significantly reduced
- imiquimod-promoted ATP secretion (keratinocytes; 1 μM imeglimin): strongly inhibited
- imiquimod-promoted ATP secretion (keratinocytes; 10 NM imeglimin (so in the source)): strongly inhibited
- inhibitory effects on psoriatic symptoms by TMG1 immunohistochemical images (mouse auricle; Day 8 (FIG. 42)): supported by the immunohistochemical images of TMG1
- erythema (excepted from the symptoms reduced) (mouse auricle; imeglimin 40 mg/kg oral daily or infliximab 100 μg/mouse i.v. Days 1, 3, 5, N=5 (FIG. 38)): except erythema
- typical psoriatic symptoms induced by imiquimod, except erythema (thickness, desquamation, infiltration, PASI score) (mouse auricle; imeglimin 40 mg/kg oral daily or infliximab 100 μg/mouse i.v. Days 1, 3, 5, N=5 (FIGS. 37-41)): reduced
- effect of imeglimin compared with infliximab (mouse auricle; imeglimin 40 mg/kg oral vs infliximab 100 μg/mouse i.v.): almost equivalent, or imeglimin was more effective
